From ChEMBL document CHEMBL1133401 (Bioorg Med Chem Lett, 2000) come the findings set out here.

Series [1] concerns the target T1, Adenosine receptor A1 (Cavia porcellus, UniProt P47745).
T1 sequence (P47745 whole entry): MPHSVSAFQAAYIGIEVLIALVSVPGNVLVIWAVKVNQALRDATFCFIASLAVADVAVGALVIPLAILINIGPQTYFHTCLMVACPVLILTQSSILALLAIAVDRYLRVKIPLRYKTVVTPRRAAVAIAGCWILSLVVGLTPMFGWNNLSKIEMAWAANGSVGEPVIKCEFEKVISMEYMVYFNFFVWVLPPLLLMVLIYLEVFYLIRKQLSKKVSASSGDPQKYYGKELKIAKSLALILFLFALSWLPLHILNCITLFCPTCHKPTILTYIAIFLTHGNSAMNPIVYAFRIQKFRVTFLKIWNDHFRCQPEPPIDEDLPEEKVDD
Put plainly: Ex vivo inhibition of guinea pig ileum twitch via Adenosine A1 receptor. It is filed as tissue-based.

A short description of series [2]: The compound was evaluated for the aqueous solubility at pH value of 2.6. Type of series: physicochemical. As to conditions: pH 2.6.
Series [3] has as its target T2, Adenosine receptor A2a (Rattus norvegicus, UniProt P30543). In words: (§1) Agonistic activity against Adenosine A2A receptor on rat striatal membranes.
Series [4] concerns the target T2, Adenosine receptor A2a. The description is as §1. Type of series: functional, Striatum, Membrane.

Converted amounts (≈) assume the structure as drawn.

T2 sequence (P30543 whole entry): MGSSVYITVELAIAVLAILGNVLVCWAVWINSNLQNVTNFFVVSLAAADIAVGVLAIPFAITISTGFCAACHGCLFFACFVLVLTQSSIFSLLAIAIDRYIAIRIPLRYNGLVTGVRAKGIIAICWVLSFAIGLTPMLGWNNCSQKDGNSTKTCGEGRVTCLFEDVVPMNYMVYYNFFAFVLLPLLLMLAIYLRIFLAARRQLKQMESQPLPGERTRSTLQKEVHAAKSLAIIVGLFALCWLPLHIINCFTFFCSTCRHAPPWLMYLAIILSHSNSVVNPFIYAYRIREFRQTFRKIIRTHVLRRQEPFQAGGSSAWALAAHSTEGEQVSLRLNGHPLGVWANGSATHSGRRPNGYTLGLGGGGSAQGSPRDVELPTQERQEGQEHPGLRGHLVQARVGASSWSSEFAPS

Molecule `CCNC(=O)[C@H]1O[C@@H](n2cnc3c(NCC(c4ccccc4)c4ccccc4)nc(N[C@H]4CC[C@H](N)CC4)nc32)[C@H](O)[C@@H]1O.O=C(O)C(F)(F)F` displayed an ECR in series [1] of 369. The molecule further came in with a solubility in series [2] of 1570 µg/mL.

For the molecule `OC[C@H]1O[C@@H](n2cnc3c(NC4CCCC4)nc(Cl)nc32)[C@H](O)[C@@H]1O`, in series [1], the ECR is 1.

In the case of `OC[C@H]1O[C@@H](n2cnc3c(NCC(c4ccccc4)c4ccccc4)nc(NC4CCCC4)nc32)[C@H](O)[C@@H]1O`, the ECR in series [1] is > 612.

The molecule `Nc1nc(NC2CCCC2)nc2c1ncn2[C@@H]1O[C@H](CO)[C@@H](O)[C@H]1O` yielded an ECR in series [1] of 549.

In series [1], `CCNC(=O)[C@H]1O[C@@H](n2cnc3c(NCC(c4ccccc4)c4ccccc4)nc(NCCN4CCCCC4)nc32)[C@H](O)[C@@H]1O.O=C(O)C(F)(F)F` showed an ECR of 263. Also, the solubility in series [2] is ≥ 1870 µg/mL.

With `OC[C@H]1O[C@@H](n2cnc3c(NCCc4cccc(Cl)c4)nc(NC4CCCC4)nc32)[C@H](O)[C@@H]1O`, the ECR in series [1] is > 1000.

In turn, `OC[C@H]1O[C@@H](n2cnc3c(N[C@@H]4CCC[C@@H]4O)nc(Cl)nc32)[C@H](O)[C@@H]1O` came in with an ECR in series [1] of 2.

In turn, `OC[C@H]1O[C@@H](n2cnc3c(NCc4cccc5ccccc45)ncnc32)[C@H](O)[C@@H]1O` gave a Ki in series [3] of 0.0094 µM.

As for `Nc1nc(N[C@H]2CCC[C@@H]2O)nc2c1ncn2[C@@H]1O[C@H](CO)[C@@H](O)[C@H]1O`, in series [1], the ECR came out at 84.

As to `OC[C@H]1O[C@@H](n2cnc3c(NCc4cccc5ccccc45)nc(NC4CCCCC4)nc32)[C@H](O)[C@@H]1O`, the affinity in series [4] corresponds to a Ki of 10.3 µM.

Take `Nc1nc(N[C@@H]2CCC[C@H]2O)nc2c1ncn2[C@@H]1O[C@H](CO)[C@@H](O)[C@H]1O`: the ECR in series [1] worked out at 1470.

The molecule `CCNC(=O)[C@H]1O[C@@H](n2cnc3c(N)nc(NC4CCCC4)nc32)[C@H](O)[C@@H]1O` came in with an ECR in series [1] of 80.

As for `CCNC(=O)[C@H]1O[C@@H](n2cnc3c(NCC(c4ccccc4)c4ccccc4)nc(N[C@@H]4CCC[C@H]4O)nc32)[C@H](O)[C@@H]1O`, the ECR in series [1] is 390.

`CCNC(=O)[C@H]1O[C@@H](n2cnc3c(N)nc(N[C@@H]4CCC[C@H]4O)nc32)[C@H](O)[C@@H]1O` gave an ECR in series [1] of 260.

The molecule `CCNC(=O)[C@H]1O[C@@H](n2cnc3c(NCC(c4ccccc4)c4ccccc4)nc(NCCc4c[nH]cn4)nc32)[C@H](O)[C@@H]1O` showed an ECR in series [1] of 672. For the same molecule, the solubility in series [2] is ≥ 1820 µg/mL.

As to `CCNC(=O)[C@H]1O[C@@H](n2cnc3c(NCC(c4ccccc4)c4ccccc4)nc(NC4CCCC4)nc32)[C@H](O)[C@@H]1O`, the ECR in series [1] is > 5000. In addition, the solubility in series [2] was 24 µg/mL (≈ 42 µM).

As a reminder, the solubility is how much of the substance goes into solution per volume. What is called Ki is a dissociation constant, usually derived from enzyme kinetics or from competition with a known ligand. A higher Ki goes with a looser hold on the target.
